≈ marks a conversion by molar mass, not a printed value.
Legend:
Plasmodium falciparum [1] = experiment: Antimalarial activity against multidrug-resistant Plasmodium falciparum K1 infected human erythrocytes assessed by [3H]hypoxanthine uptake; format: functional, organism-based
Plasmodium berghei [2] = experiment: Antimalarial activity as reduced parasitaemia at day 4 against Plasmodium berghei N infected TSW mice (Mus musculus) perorally dosed 3 hrs post infection then daily; format: functional; conditions: po
Plasmodium berghei [3] = experiment: Antimalarial activity as reduced parasitaemia at day 4 against Plasmodium berghei N infected TSW mice (Mus musculus) at 9 mg/kg perorally dosed 3 hrs post infection then daily; format: functional; conditions: route oral
[4] = (§1) Toxicity in Plasmodium berghei N-infected TSW mice (Mus musculus) assessed as mortality before day 5 at 9 mg/kg, perorally administered 3 hrs after infection daily for 4 consecutive days; format: organism-based; parameters: dose 9 mg/kg, route oral; conditions: TSW, in vivo, po, read-out: Activity
Plasmodium berghei [5] = experiment: Antimalarial activity as reduced parasitaemia at day 4 against Plasmodium berghei N infected TSW mice (Mus musculus) at 3 mg/kg peroral dose 3 hrs post infection then daily; format: functional; conditions: route oral
Mus musculus [6] = experiment: as §1; format: organism-based; parameters: dose 9 mg/kg, route oral; conditions: in vivo, po, 3 h
Mus musculus [7] = experiment: Toxicity in Plasmodium berghei N-infected TSW mice (Mus musculus) assessed as toxic deaths before day 5 at 3 mg/kg, perorally administered 3 hrs after infection daily for 4 consecutive days; format: organism-based; parameters: dose 3 mg/kg, route oral; conditions: in vivo, po
Plasmodium falciparum [8] = experiment: Antimalarial activity against multidrug-resistant Plasmodium falciparum K1 in human erythrocytes as inhibition of [3H]hypoxanthine uptake; format: functional, organism-based

SMILES: COC(=O)[C@]12OC[C@]34[C@H]([C@@H](O)[C@@H]1O)[C@@]1(C)CC(=O)C(O)=C(C)[C@@H]1C[C@H]3OC(=O)[C@H](OC(=O)/C=C(\C)C(C)(C)OC(C)=O)[C@@H]24 [BRUCEANTINOL]
- IC50 (Plasmodium falciparum [1]): 0.002 µg/mL (≈ 0.0033 µM)

SMILES: COC(=O)[C@@]12OC[C@]34[C@H]([C@@H](O)[C@@H]1O)[C@@]1(C)CC(=O)C(O)=C(C)[C@@H]1C[C@H]3OC(=O)[C@H](OC(=O)/C=C(\C)C(C)C)[C@@H]24 [BRUCEANTIN]
- IC50 (Plasmodium falciparum [1]): 0.0008 µg/mL (≈ 0.00146 µM)

SMILES: COC(=O)[C@@]12OC[C@]34[C@H]([C@@H](O)[C@@H]1O)[C@@]1(C)CC(=O)C(O)=C(C)[C@@H]1C[C@H]3OC(=O)[C@H](OC(=O)CC(C)C)[C@@H]24 [BRUCEINE A]
- IC50 (Plasmodium falciparum [1]): 0.011 µg/mL (≈ 0.0211 µM)
- ED50 (Plasmodium berghei [2]): 3.36 mg/kg/day
- ED90 (Plasmodium berghei [2]): 26.7 mg/kg/day
- inhibition in vivo at 9 mg/kg (Plasmodium berghei [3]): 72%

SMILES: COC(=O)[C@@]12OC[C@]34[C@H]([C@@H](O)[C@@H]1O)[C@@]1(C)CC(=O)C(O)=C(C)[C@@H]1C[C@H]3OC(=O)[C@H](OC(C)=O)[C@@H]24 [BRUCEINE B]
- mortality at 3 h [4]: 100%
- IC50 (Plasmodium falciparum [1]): 0.011 µg/mL (≈ 0.0229 µM)
- inhibition in vivo at 3 mg/kg (Plasmodium berghei [5]): 95%
- ED50 (Plasmodium berghei [2]): 0.9 mg/kg/day
- ED90 (Plasmodium berghei [2]): 2.82 mg/kg/day

SMILES: COC(=O)[C@]12OC[C@]34[C@H]([C@@H](O)[C@@H]1O)[C@@]1(C)CC(=O)C(O)=C(C)[C@@H]1C[C@H]3OC(=O)[C@H](OC(=O)/C=C(\C)C(C)(C)O)[C@@H]24 [BRUCEINE C]
- Activity (Mus musculus [6]): Toxic
- IC50 (Plasmodium falciparum [1]): 0.005 µg/mL (≈ 0.00886 µM)
- inhibition in vivo at 3 mg/kg (Plasmodium berghei [5]): 40%

SMILES: CC1=CC(=O)[C@@H](O)[C@]2(C)[C@H]3[C@@H](O)[C@H](O)[C@]4(C)OC[C@@]35[C@@H](C[C@@H]12)OC(=O)[C@H](O)[C@]54O [BRUCEINE D]
- Activity (Mus musculus [7]): Non-toxic
- IC50 (Plasmodium falciparum [1]): 0.015 µg/mL (≈ 0.0365 µM)
- inhibition in vivo at 3 mg/kg (Plasmodium berghei [5]): 50%
- ED50 (Plasmodium berghei [2]): 2.79 mg/kg/day
- ED90 (Plasmodium berghei [2]): 8.19 mg/kg/day

SMILES: COC(=O)[C@]12OC[C@]34[C@H]([C@@H](O)[C@@H]1O)[C@@]1(C)CC(=O)C(O)=C(C)[C@@H]1C[C@H]3OC(=O)[C@H](OC(=O)C=C(C)C)[C@@H]24 [BRUSATOL]
- IC50 (Plasmodium falciparum [1]): 0.003 µg/mL (≈ 0.00576 µM)
- inhibition in vivo at 3 mg/kg (Plasmodium berghei [5]): 98%
- ED50 (Plasmodium berghei [2]): 1.27 mg/kg/day
- ED90 (Plasmodium berghei [2]): 3.03 mg/kg/day

SMILES: COC(=O)[C@]12OC[C@@]34[C@@H](CC5=C(C)C(=O)C(O)=C[C@]5(C)[C@H]3[C@@H](O)[C@@H]1O)OC(=O)[C@H](OC(=O)CC(C)C)[C@@H]24 [DEHYDROBRUCEINE A]
- IC50 (Plasmodium falciparum [1]): 0.046 µg/mL (≈ 0.0884 µM)

SMILES: CC1=CC(=O)[C@@H](O)[C@]2(C)[C@H]3[C@@H](O)[C@H](O)[C@]4(CO)OC[C@@]35[C@@H](C[C@@H]12)OC(=O)[C@H](O)[C@]54O [YADANZIOLIDE A]
- IC50 (Plasmodium falciparum [1]): 0.031 µg/mL (≈ 0.0727 µM)

SMILES: COC(=O)[C@]12OC[C@]34[C@H]([C@@H](O)[C@@H]1O)[C@@]1(C)C=C(O[C@@H]5O[C@H](CO)[C@@H](O)[C@H](O)[C@H]5O)C(=O)[C@@H](C)[C@@H]1C[C@H]3OC(=O)[C@H](OC(C)=O)[C@@H]24 [YADANZIOSIDE F]
- IC50 (Plasmodium falciparum [8]): 5 µg/mL (≈ 7.78 µM)

SMILES: COC(=O)[C@]12OC[C@]34[C@H]([C@@H](O)[C@@H]1O)[C@@]1(C)CC(=O)C(O[C@@H]5O[C@H](CO)[C@@H](O)[C@H](O)[C@H]5O)=C(C)[C@@H]1C[C@H]3OC(=O)[C@H](OC(C)=O)[C@@H]24 [YADANZIOSIDE I]
- IC50 (Plasmodium falciparum [1]): 22 µg/mL (≈ 34.3 µM)
